Biological target: T1, recombinant human NPY Y2 receptors (Homo sapiens, UniProt P49146)
T1 construct: expressed in transfected cells; host or cells: CHO-C4 cells (membrane preparation)
T1 sequence (P49146 1-381): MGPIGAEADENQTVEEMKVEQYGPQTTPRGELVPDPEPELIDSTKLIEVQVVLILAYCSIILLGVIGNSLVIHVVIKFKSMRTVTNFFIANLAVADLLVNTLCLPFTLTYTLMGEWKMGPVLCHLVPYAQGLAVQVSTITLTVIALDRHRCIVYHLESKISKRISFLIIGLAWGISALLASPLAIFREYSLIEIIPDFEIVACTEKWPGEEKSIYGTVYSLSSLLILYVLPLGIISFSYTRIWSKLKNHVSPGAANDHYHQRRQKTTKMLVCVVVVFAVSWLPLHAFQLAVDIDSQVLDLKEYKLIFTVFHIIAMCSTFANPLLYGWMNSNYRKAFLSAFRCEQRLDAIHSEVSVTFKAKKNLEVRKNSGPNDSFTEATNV
Test: Scintillation proximity [35S]GTPγS binding assay (inhibition of 0.5 nM NPY-stimulated [35S]GTPγS binding)
Format: biochemical
Conditions: 10 μM compound, CHO-C4 membranes; for inhibition at 10 µM: read-out: [%] inhibiton at 10 μM
Experimental: Preparation of Membranes: CHO—C4 cells expressing recombinant human NPY Y2 receptors were used to prepare membranes for the GTPγS assay. Cells were grown to 80-95% confluency on 15-cm (225 cm^2) tissue culture plates. After aspiration of the culture medium, cells were washed twice with 18 ml ice-cold phosphate-buffered saline (PBS), scraped off and suspended in 3 ml ice-cold PBS in pre-cooled centrifuge tubes. The dishes were rinsed with 2 ml ice-cold PBS per dish and the washings were combined with the PBS cell suspension from above. Cells pooled from 5-7 dishes were centrifuged for 5 min at 10,000 rpm (12,000 g) in a Sorvall RC5B centrifuge using an SS34 rotor at 4° C. The cell pellet was resuspended in 5 ml ice-cold buffer (20 mM HEPES, 10 mM EDTA; pH 7.4) by vortexing (2-5 sec), homogenized using a Polytron (step 4 for 20-30 sec), and ice-cold buffer added to 25 ml. The suspension was centrifuged again for 20 min at 18,000 rpm (39,000 g) at 4° C. and the pellet resuspended in 5 ml ice-cold buffer (20 mM HEPES, 0.1 mM EDTA; pH 7.4) by vortexing (2-5 sec), homogenized with a Polytron (step 4 for 10 sec), and ice-cold buffer added to 25 ml. The suspension was centrifuged a third time for 20 min at 18,000 rpm (39,000 g) at 4° C. The pellet was resuspend in 1 ml ice-cold buffer (20 mM Hepes, 0.1 mM EDTA; pH 7.4) by vortexing (5-8 sec). Two to five resuspended pellets were combined and homogenized using a Polytron (step 4 for 15-25 sec). A small aliquot (20-50 μl) was removed for protein determination by the Coomassie Plus Protein Assay Reagent (Pierce) using BSA as standard. The membrane suspension was aliquoted in pre-cooled (on dry ice) Eppendorf tubes (0.25-1 ml/tube affording approximately 0.5-2 mg of membrane protein/tube). The pellets were frozen and stored at −80° C.
Scintillation proximity [^35S]GTPγS binding assay: Frozen membranes from CHO—C4 cells expressing recombinant human NPY Y2 receptors (2 mg for four 96-well plates) were thawed on ice. Thawed membranes were pipetted into 10 ml of assay buffer (20 mM. HEPES, 10 mM MgCl2, 100 mM NaCl, pH 7.4) and homogenized briefly using a Polytron. The final assay mixture was prepared in 96-well microtiter plates (Isoplate Wallac, Perkin Elmer). The composition of the assay mixtures in a final volume of 250 μl per well was as follows: 20 mM HEPES, 10 mM MgCl2, 100 mM NaCl, pH 7.4, 30 μM GDP, 1 mg/ml BSA (added fresh), 5 μg membrane protein, 1.5 mg Wheatgerm agglutinin SPA beads (Amersham), 0.45 nM [^35S]GTPγS (Amersham, SJ1308, 1000 Ci/mmol, stabilized solution), and the test compounds (agonists and/or antagonists) at the appropriate concentrations. The samples were incubated at room temperature for 90 min by shaking, after which the SPA beads were sedimented by centrifugation in an Eppendorf 5804 centrifuge at 2700 rpm for 10 min at room temperature. After 60 min the plates were counted in a TopCount (Canberra). Basal [^35S]GTPγS binding was measured in the absence of agonist (NPY). Non-specific binding was measured in the presence of excess (10 μM) unlabelled GTPγS (Sigma). Nonspecific binding never exceeded 10% of basal binding and was thus not subtracted from the experimental data. Antagonists were tested for the inhibition of 0.5 nM NPY-stimulated [^35S]GTPγS binding. Antagonist inhibition curves were analyzed by non-linear regression using GraphPad Prism software (Version 4.0, GraphPad Software Inc., CA, USA).
Antagonistic activity of compounds of the present invention was examined by the Scintillation proximity [35S]GTPγS binding assay as described above (inhibition of 0.5 nM NPY-stimulated [^35S]GTPγS binding). The table below represents percentages of inhibition at a concentration of 10 μM.

With `CCCC1(c2ccccc2)NC(=O)N(CC(=O)c2ccc(NC(=O)Nc3c(C)noc3C)cc2F)C1=O` (racemic) [Example 1, (±)-1-(3,5-Dimethyl-isoxazol-4-yl)-3-{4-[2-(2,5-dioxo-4-phenyl-4-propyl-imidazolidin-1-yl)-acetyl]-3-fluoro-phenyl}-urea] the inhibition at 10 µM was 105%.

In the case of `CCC1(c2ccccc2)NC(=O)N(CC(=O)c2ccc(NC(=O)Nc3c(C)noc3C)cc2)C1=O` (racemic) [Example 2, (±)-1-(3,5-Dimethyl-isoxazol-4-yl)-3-{4-[2-(4-ethyl-2,5-dioxo-4-phenyl-imidazolidin-1-yl)-acetyl]-phenyl}-urea], the inhibition at 10 µM is reported as 98%.

`CCCC1(c2ccccc2)NC(=O)N(CC(=O)c2ccc(NC(=O)CC(C)C)cc2F)C1=O` (racemic) [Example 5, (±)-N-{4-[2-(2,5-Dioxo-4-phenyl-4-propyl-imidazolidin-1-yl)-acetyl]-3-fluoro-phenyl}-3-methyl-butyramide] was tested, and the inhibition at 10 µM was 63%.

For `CCC1(c2ccccc2)NC(=O)N(CC(=O)c2ccc(NC(=O)CC(C)C)cc2F)C1=O` (racemic) [Example 13, (±)-N-{4-[2-(4-Ethyl-2,5-dioxo-4-phenyl-imidazolidin-1-yl)-acetyl]-3-fluoro-phenyl}-3-methyl-butyramide], the inhibition at 10 µM was 78%.

With `Cc1ccc(C2(c3ccccc3)NC(=O)N(CC(O)c3ccc(NC(=O)CC(C)C)cc3)C2=O)cc1` (racemic) [Example 14, (±)-N-{4-[2-(2,5-Dioxo-4-phenyl-4-p-tolyl-imidazolidin-1-yl)-1-hydroxy-ethyl]-phenyl}-3-methyl-butyramide] the inhibition at 10 µM was 58%.

`CCC1(c2ccccc2)NC(=O)N(Cc2ccc(NC(=O)Nc3c(C)noc3C)cc2)C1=O` (racemic) [Example 19, (±)-1-(3,5-Dimethyl-isoxazol-4-yl)-3-[4-(4-ethyl-2,5-dioxo-4-phenyl-imidazolidin-1-ylmethyl)-phenyl]-urea] gave an inhibition at 10 µM of 32%.

For `CCCC1(c2ccccc2)NC(=O)N(CC(=O)c2ccc(NC(=O)Cc3c(C)noc3C)cc2)C1=O` (racemic) [Example 21, (±)-2-(3,5-Dimethyl-isoxazol-4-yl)-N-{4-[2-(2,5-dioxo-4-phenyl-4-propyl-imidazolidin-1-yl)-acetyl]-phenyl}-acetamide], the inhibition at 10 µM was 97%.

Compound `CCCC1(c2ccccc2)NC(=O)N(CC(=O)c2ccc(NC(=O)C(CC)CC)cc2)C1=O` (racemic) [Example 24, (±)-N-{4-[2-(2,5-Dioxo-4-phenyl-4-propyl-imidazolidin-1-yl)-acetyl]-phenyl}-2-ethyl-butyramide] has an inhibition at 10 µM of 96%.

With `Cc1ccc(C2(c3ccccc3)NC(=O)N(CC(=O)c3ccc(NC(=O)Nc4ccccc4F)cc3)C2=O)cc1` (racemic) [Example 39, (±)-1-{4-[2-(2,5-Dioxo-4-phenyl-4-p-tolyl-imidazolidin-1-yl)-acetyl]-phenyl}-3-(2-fluoro-phenyl)-urea] the inhibition at 10 µM was 44%.

For `COc1ccccc1CC(=O)Nc1ccc(C(=O)CN2C(=O)NC(c3ccccc3)(c3ccc(C)cc3)C2=O)cc1` (racemic) [Example 40, (±)-N-{4-[2-(2,5-Dioxo-4-phenyl-4-p-tolyl-imidazolidin-1-yl)-acetyl]-phenyl}-2-(2-methoxy-phenyl)-acetamide], the inhibition at 10 µM was 70%.

With `COc1ccc(CC(=O)Nc2ccc(C(=O)CN3C(=O)NC(c4ccccc4)(c4ccc(C)cc4)C3=O)cc2)c(OC)c1` (racemic) [Example 41, (±)-2-2,4-Dimethoxy-phenyl)-N-{4-[2-(2,5-dioxo-4-phenyl-4-p-tolyl-imidazolidin-1-yl)-acetyl]-phenyl}-acetamide] the “[%] inhibiton at 10 μM” value was 60%.

In the case of `Cc1ccc(C2(c3ccccc3)NC(=O)N(CC(=O)c3ccc(NC(=O)Cc4c(C)noc4C)cc3)C2=O)cc1` (racemic) [Example 42, (±)-2-(3,5-Dimethyl-isoxazol-4-yl)-N-{4-[2-(2,5-dioxo-4-phenyl-4-p-tolyl-imidazolidin-1-yl)-acetyl]-phenyl}-acetamide], the inhibition at 10 µM is reported as 99%.

In the case of `CCCC1(c2ccccc2)NC(=O)N(CC(=O)c2ccc(NC(=O)Nc3ccccc3F)cc2)C1=O` (racemic) [Example 44, (±)-1-{4-[2-(2,5-Dioxo-4-phenyl-4-propyl-imidazolidin-1-yl)-acetyl]-phenyl}-3-(2-fluoro-phenyl)-urea], the inhibition at 10 µM is reported as 56%.

`CCCC1(c2ccccc2)NC(=O)N(CC(=O)c2ccc(NC(=O)C(CC)CC)cc2)C1=O` (single isomer, unassigned; (+)) [Example 32] was tested, and the “[%] inhibiton at 10 μM” value was 90%.

With `CCCC1(c2ccccc2)NC(=O)N(CC(=O)c2ccc(NC(=O)Cc3c(C)noc3C)cc2)C1=O` (single isomer, unassigned; (-)) [Example 29] the “[%] inhibiton at 10 μM” value was 99%.

In the case of `CCCC1(c2ccccc2)NC(=O)N(CC(=O)c2ccc(NC(=O)C(CC)CC)cc2)C1=O` (single isomer, unassigned; (-)) [Example 31], the “[%] inhibiton at 10 μM” value is reported as 97%.

In the case of `CC(C)CC(=O)Nc1ccc(C(=O)CN2C(=O)NC(c3ccccc3)(c3ccccc3)C2=O)c(F)c1` [Example 9, N-{4-[2-(2,5-Dioxo-4,4-diphenyl-imidazolidin-1-yl)-acetyl]-3-fluoro-phenyl}-3-methyl-butyramide], the inhibition at 10 µM is reported as 83%.

`CCC(=O)Nc1ccc(C(=O)CN2C(=O)NC(c3ccc(F)cc3)(c3ccc(F)cc3)C2=O)cc1` [Example 12, N-(4-{2-[4,4-Bis-(4-fluoro-phenyl)-2,5-dioxo-imidazolidin-1-yl]-acetyl}-phenyl)-propionamide] was tested, and the inhibition at 10 µM was 42%.

For `CCCC1(c2ccccc2)NC(=O)N(CC(=O)c2ccc(NC(=O)C3CCOC3)cc2)C1=O` (centres unmarked) [Example 22, Tetrahydro-furan-3-carboxylic acid {4-[2-(2,5-dioxo-4-phenyl-4-propyl-imidazolidin-1-yl)-acetyl]-phenyl}-amide], the inhibition at 10 µM was 83%.

With `CCCC1(c2ccccc2)NC(=O)N(CC(=O)c2ccc(NC(=O)C3CCCN3)cc2)C1=O` (centres unmarked) [Example 23, Pyrrolidine-2-carboxylic acid {4-[2-(2,5-dioxo-4-phenyl-4-propyl-imidazolidin-1-yl)-acetyl]-phenyl}-amide] the inhibition at 10 µM was 36%.

For `Cc1noc(C)c1CC(=O)Nc1ccc(C(=O)CN2C(=O)NC(c3ccccc3)(c3ccccc3)C2=O)cc1` [Example 27, 2-(3,6-Dimethyl-isoxazol-4-yl)-N-{4-[2-(2,5-dioxo-4,4-diphenyl-imidazolidin-1-yl)-acetyl]-phenyl}-acetamide], the “[%] inhibiton at 10 μM” value was 96%.

With `Cc1noc(C)c1NC(=O)Nc1ccc(C(=O)CN2C(=O)NC(c3ccccc3)(c3ccccc3)C2=O)c(F)c1` [Example 28, 1-(3,5-Dimethyl-isoxazolyl-4-yl)-3-{4-[2-(2,5-dioxo-4,4-diphenyl-imidazolidin-1-yl)-acetyl]-3-fluoro-phenyl}-urea] the “[%] inhibiton at 10 μM” value was 98%.

For `CCC(CC)C(=O)Nc1ccc(C(=O)CN2C(=O)NC(c3ccccc3)(c3ccccc3)C2=O)c(F)c1` [Example 34, N-{4-[2-(2,5-Dioxo-4,4-diphenyl-imidazolidin-1-yl)-acetyl]-3-fluoro-phenyl}-2-ethyl-butyramide], the inhibition at 10 µM was 90%.
